# Measured values reported in ChEMBL document CHEMBL1177720, “Selective hexapeptide agonists and antagonists for human complement C3a receptor” (J Med Chem, 2010).
# Calls of active or inactive are those of the source. The rule behind the calls is not given here. Square brackets hold non-standard residues; d marks the D form. Peptide text beside a SMILES is read from it. 1Nal = N[C@@H](Cc1cccc2ccccc12)C(=O)O; hPhe = N[C@@H](CCc1ccccc1)C(=O)O; Cha = N[C@@H](CC1CCCCC1)C(=O)O; Nle = CCCC[C@H](N)C(=O)O; Orn = NCCC[C@H](N)C(=O)O
# Experiments:
# [1] = molecular target: T1, C3a anaphylatoxin chemotactic receptor (Homo sapiens) (UniProt Q16581); assay: Agonist activity at human C3a receptor in human U937 cells assessed as induction of intracellular calcium release at 1 mM; format: functional, cell-based; details: U-937
# T1 sequence (whole entry): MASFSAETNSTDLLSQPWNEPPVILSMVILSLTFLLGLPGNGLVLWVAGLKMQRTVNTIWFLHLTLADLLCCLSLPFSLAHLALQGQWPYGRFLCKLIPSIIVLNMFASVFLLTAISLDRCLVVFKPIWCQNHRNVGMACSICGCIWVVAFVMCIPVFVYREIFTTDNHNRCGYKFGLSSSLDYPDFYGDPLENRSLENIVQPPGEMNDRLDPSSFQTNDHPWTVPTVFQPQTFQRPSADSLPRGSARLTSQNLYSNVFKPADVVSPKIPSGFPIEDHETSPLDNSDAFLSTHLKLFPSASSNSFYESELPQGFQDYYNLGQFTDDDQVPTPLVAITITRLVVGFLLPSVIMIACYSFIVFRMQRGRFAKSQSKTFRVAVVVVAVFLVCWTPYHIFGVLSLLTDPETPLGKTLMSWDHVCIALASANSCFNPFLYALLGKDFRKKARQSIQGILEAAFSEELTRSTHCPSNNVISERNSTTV
# [2] = molecular target: T2, C3a anaphylatoxin chemotactic receptor (Homo sapiens, UniProt Q16581); assay: Agonist activity at human C3a receptor in human U937 cells assessed as induction of intracellular calcium release; format: functional, cell-based, U-937
# T2 sequence (Q16581 whole entry): T1 sequence (whole entry)
Compound,Activity [1],EC50 ([2]; read-out: EC50) [nM],other results
CC(C)C[C@H](NC(=O)[C@@H]1CCCN1C(=O)[C@H](CCCCN)NC(=O)[C@@H](N)Cc1ccccc1)C(=O)N[C@@H](Cc1ccccc1)C(=O)N[C@@H](CCCNC(=N)N)C(=O)O (H-FKPLFR-OH),inactive,,
CC(C)C[C@H](NC(=O)[C@@H](N)Cc1ccccc1)C(=O)N[C@H](C(=O)N[C@@H](CC(C)C)C(=O)N1CCC[C@H]1C(=O)N[C@@H](CCCN=C(N)N)C(=O)O)[C@@H](C)O (H-FLTLPR-OH),,29000,
CC(C)C[C@H](NC(=O)[C@@H]1CCCN1C(=O)[C@H](CCCCN)NC(=O)[C@@H](N)Cc1c[nH]c2ccccc12)C(=O)N[C@@H](C)C(=O)N[C@@H](CCCNC(=N)N)C(=O)O (H-WKPLAR-OH),inactive,,
CC(C)C[C@H](NC(=O)[C@@H]1CCCN1C(=O)[C@H](CCCNC(=N)N)NC(=O)[C@@H](N)Cc1ccccc1)C(=O)N[C@@H](C)C(=O)N[C@@H](CCCNC(=N)N)C(=O)O (H-FRPLAR-OH),inactive,,
N=C(N)NCCC[C@@H](NC(=O)[C@H](CC1CCCCC1)NC(=O)[C@@H](CC1CCCCC1)NC(=O)[C@@H]1CCCN1C(=O)[C@H](CCCCN)NC(=O)[C@@H](N)Cc1ccccc1)C(N)=O,,2200,
CC(C)C[C@H](NC(=O)[C@@H]1CCCN1C(=O)[C@H](CCCN)NC(=O)[C@@H](N)Cc1ccccc1)C(=O)N[C@@H](C)C(=O)N[C@@H](CCCNC(=N)N)C(=O)O (H-F[Orn]PLAR-OH),inactive,,
C[C@H](NC(=O)[C@H](CC1CCCCC1)NC(=O)[C@@H]1CCCN1C(=O)[C@H](CCCCN)NC(=O)[C@@H](N)Cc1ccccc1)C(=O)N[C@@H](CCCNC(=N)N)C(=O)O (H-FKP[Cha]AR-OH),inactive,,
CC(C)C[C@H](NC(=O)[C@@H](N)Cc1ccccc1)C(=O)N[C@H](C(=O)N[C@H](CC1CCCCC1)C(=O)N[C@@H](C)C(=O)N[C@@H](CCCNC(=N)N)C(=O)O)[C@@H](C)O,inactive,,
CC[C@H](C)[C@H](NC(=O)[C@@H](NC(=O)[C@H](CC(C)C)NC(=O)[C@@H](N)Cc1ccccc1)[C@@H](C)O)C(=O)N[C@@H](C)C(=O)N[C@@H](CCCNC(=N)N)C(=O)O (H-FLTIAR-OH),inactive,,
CC(C)C[C@H](NC(=O)[C@@H]1CCCN1C(=O)[C@H](Cc1cccc2ccccc12)NC(=O)[C@@H](N)Cc1ccccc1)C(=O)N[C@@H](C)C(=O)N[C@@H](CCCNC(=N)N)C(=O)O (H-F[1Nal]PLAR-OH),,720,
CC(C)C[C@H](NC(=O)[C@@H]1CCCN1C(=O)[C@H](Cc1ccccc1)NC(=O)[C@@H](N)Cc1ccccc1)C(=O)N[C@@H](C)C(=O)N[C@@H](CCCNC(=N)N)C(=O)O (H-FFPLAR-OH),,5400,
CC(C)C[C@H](NC(=O)[C@@H](NC(=O)[C@H](CC(C)C)NC(=O)[C@@H](N)CCc1ccccc1)[C@@H](C)O)C(=O)N[C@@H](C)C(=O)N[C@@H](CCCNC(=N)N)C(=O)O (H-[hPhe]LTLAR-OH),,11000,
CC(C)C[C@H](NC(=O)[C@H](CC(C)C)NC(=O)[C@@H](NC(=O)[C@H](CC(C)C)NC(=O)[C@@H](N)Cc1ccccc1)[C@@H](C)O)C(=O)N[C@@H](CCCNC(=N)N)C(=O)O (H-FLTLLR-OH),inactive,,
CC(C)C[C@H](NC(=O)[C@@H]1CCCN1C(=O)[C@H](CCc1ccccc1)NC(=O)[C@@H](N)Cc1ccccc1)C(=O)N[C@@H](C)C(=O)N[C@@H](CCCN=C(N)N)C(=O)O (H-F[hPhe]PLAR-OH),,1100,
CC(C)C[C@H](NC(=O)[C@H](Cc1ccccc1)NC(=O)[C@H](CCCCN)NC(=O)[C@@H](N)Cc1ccccc1)C(=O)N[C@@H](C)C(=O)N[C@@H](CCCNC(=N)N)C(=O)O (H-FKFLAR-OH),inactive,,
CC(C)C[C@H](NC(=O)[C@@H]1CCCN1C(=O)[C@H](CCC(=O)O)NC(=O)[C@@H](N)Cc1ccccc1)C(=O)N[C@@H](C)C(=O)N[C@@H](CCCNC(=N)N)C(=O)O (H-FEPLAR-OH),inactive,,
CC(C)C[C@H](NC(=O)[C@H](CO)NC(=O)[C@H](CC(C)C)NC(=O)[C@@H](N)Cc1ccccc1)C(=O)N[C@@H](C)C(=O)N[C@@H](CCCNC(=N)N)C(=O)O (H-FLSLAR-OH),,360,
CC(C)C[C@H](NC(=O)[C@H](C)NC(=O)[C@H](Cc1c[nH]c2ccccc12)NC(=O)[C@@H](N)Cc1ccccc1)C(=O)N[C@@H](C)C(=O)N[C@@H](CCCN=C(N)N)C(=O)O (H-FWALAR-OH),,1200,
CC(C)C[C@H](NC(=O)[C@@H](NC(=O)[C@H](CC(C)C)NC(=O)[C@@H](N)Cc1ccccc1)C(C)C)C(=O)N[C@@H](C)C(=O)N[C@H](CCCN=C(N)N)C(=O)O,,57000,
CC(C)C[C@H](NC(=O)[C@@H](NC(=O)[C@H](CCCNC(=N)N)NC(=O)[C@@H](N)Cc1ccccc1)[C@@H](C)O)C(=O)N[C@@H](C)C(=O)N[C@@H](CCCNC(=N)N)C(=O)O (H-FRTLAR-OH),,6800,

Compound,Activity [1],EC50 ([2]; read-out: EC50) [nM],other results
CSCC[C@H](NC(=O)[C@@H]1CCCN1C(=O)[C@H](CCCCN)NC(=O)[C@H](Cc1cnc[nH]1)NC(=O)[C@H](CO)NC(=O)[C@@H](N)Cc1ccc(O)cc1)C(=O)N1CCC[C@H]1C(=O)N[C@@H](CC(C)C)C(=O)N[C@H](C)C(=O)N[C@@H](CCCN=C(N)N)C(=O)O,,5700,
C[C@H](NC(=O)[C@H](Cc1c[nH]c2ccccc12)NC(=O)[C@@H]1CCCN1C(=O)[C@H](CCCCN)NC(=O)[C@@H](N)Cc1ccccc1)C(=O)N[C@@H](CCCNC(=N)N)C(=O)O (H-FKPWAR-OH),inactive,,
CC(C)C[C@H](NC(=O)[C@@H]1CCCN1C(=O)[C@H](CCCCN)NC(=O)[C@@H](N)CC1CCCCC1)C(=O)N[C@@H](C)C(=O)N[C@@H](CCCNC(=N)N)C(=O)O (H-[Cha]KPLAR-OH),inactive,,
CC(C)C[C@H](NC(=O)[C@@H]1CCCN1C(=O)[C@H](CCCCN)NC(=O)[C@@H](N)Cc1ccccc1)C(=O)N[C@@H](C)C(=O)N[C@@H](CCCNC(=N)N)C(=O)O (H-FKPLAR-OH),,33000,
CC(C)C[C@H](NC(=O)[C@@H](NC(=O)[C@H](CC(C)C)NC(=O)[C@@H](N)Cc1ccc(O)cc1)[C@@H](C)O)C(=O)N[C@@H](C)C(=O)N[C@@H](CCCN=C(N)N)C(=O)O (H-YLTLAR-OH),,2500,
CCCC[C@H](NC(=O)[C@@H](N)Cc1ccccc1)C(=O)N[C@H](C(=O)N[C@@H](CC(C)C)C(=O)N[C@@H](C)C(=O)N[C@@H](CCCN=C(N)N)C(=O)O)[C@@H](C)O (H-F[Nle]TLAR-OH),,310,
CC(=O)N[C@@H](Cc1ccccc1)C(=O)N[C@@H](CC(C)C)C(=O)N[C@H](C(=O)N[C@@H](CC(C)C)C(=O)N[C@@H](C)C(=O)N[C@@H](CCCNC(=N)N)C(=O)O)[C@@H](C)O (Ac-FLTLAR-OH),,520,
CC(C)C[C@H](NC(=O)[C@@H](NC(=O)[C@H](CC(C)C)NC(=O)[C@@H](N)Cc1ccccc1)[C@@H](C)O)C(=O)N[C@@H](C)C(=O)N[C@@H](CCCN=C(N)N)C(N)=O (H-FLTLAR-NH2),,37000,
CC(C)C[C@H](NC(=O)[C@@H]1CCCN1C(=O)[C@H](CC1CCCCC1)NC(=O)[C@@H](N)Cc1ccccc1)C(=O)N[C@@H](C)C(=O)N[C@@H](CCCNC(=N)N)C(=O)O (H-F[Cha]PLAR-OH),,780,
CC(C)C[C@H](NC(=O)[C@@H]1CCCN1C(=O)[C@H](CCCCN)NC(=O)[C@@H](N)Cc1ccccc1)C(=O)N[C@@H](Cc1c[nH]c2ccccc12)C(=O)N[C@@H](CCCN=C(N)N)C(=O)O (H-FKPLWR-OH),,25000,
CCCC[C@H](NC(=O)[C@@H](N)Cc1ccccc1)C(=O)N1CCC[C@H]1C(=O)N[C@@H](CC(C)C)C(=O)N[C@@H](C)C(=O)N[C@@H](CCCN=C(N)N)C(=O)O (H-F[Nle]PLAR-OH),,1800,
CC(C)C[C@H](NC(=O)[C@H](CO)NC(=O)[C@H](Cc1c[nH]c2ccccc12)NC(=O)[C@@H](N)Cc1ccccc1)C(=O)N[C@@H](C)C(=O)N[C@@H](CCCNC(=N)N)C(=O)O (H-FWSLAR-OH),,490,
CC(C)C[C@H](NC(=O)[C@@H](NC(=O)[C@H](CCCCN)NC(=O)[C@@H](N)Cc1ccccc1)[C@@H](C)O)C(=O)N[C@@H](C)C(=O)N[C@@H](CCCNC(=N)N)C(=O)O (H-FKTLAR-OH),,3800,
CC(C)C[C@H](NC(=O)[C@@H]1CCCN1C(=O)[C@H](CCC(N)=O)NC(=O)[C@@H](N)Cc1ccccc1)C(=O)N[C@@H](C)C(=O)N[C@@H](CCCNC(=N)N)C(=O)O (H-FQPLAR-OH),,5300,
CCCC[C@H](NC(=O)[C@@H](NC(=O)[C@H](CC(C)C)NC(=O)[C@@H](N)Cc1ccccc1)[C@@H](C)O)C(=O)N[C@@H](C)C(=O)N[C@@H](CCCN=C(N)N)C(=O)O (H-FLT[Nle]AR-OH),,2700,
CC(C)C[C@H](NC(=O)CNC(=O)[C@H](Cc1c[nH]c2ccccc12)NC(=O)[C@@H](N)Cc1ccccc1)C(=O)N[C@@H](C)C(=O)N[C@@H](CCCNC(=N)N)C(=O)O (H-FWGLAR-OH),,470,
CC(C)C[C@H](NC(=O)[C@@H]1CCCN1C(=O)[C@H](CC(C)C)NC(=O)[C@@H](N)Cc1ccccc1)C(=O)N[C@@H](C)C(=O)N[C@@H](CCCNC(=N)N)C(=O)O (H-FLPLAR-OH),,420,
CCCC[C@H](NC(=O)[C@@H]1CCCN1C(=O)[C@H](CCCCN)NC(=O)[C@@H](N)Cc1ccccc1)C(=O)N[C@@H](C)C(=O)N[C@@H](CCCN=C(N)N)C(=O)O (H-FKP[Nle]AR-OH),,38000,
CC(C)C[C@H](NC(=O)[C@H](C)NC(=O)[C@H](CC(C)C)NC(=O)[C@@H](N)Cc1ccccc1)C(=O)N[C@@H](C)C(=O)N[C@@H](CCCNC(=N)N)C(=O)O (H-FLALAR-OH),,101000,EC50 ([2]; read-out: pEC50 (converted)): 1100 nM
